Experimental data: patent publication US8450361B2, “Substituted indole and azaindole oxoacetyl piperazinamide derivatives” (priority 2010, dated 2013)

tested on: HIV-1; test: Single-round infectious HIV-1 luciferase reporter virus infection of HeLa CD4 cells; assay type: cell-based; conditions: Human immunodeficiency virus 1, HeLa, 72 h, read-out: EC50 Group from Table 1
Protocol: • Virus production—Human embryonic Kidney cell line, 293T, was propagated in Dulbecco's Modified Eagle Medium (Invitrogen, Carlsbad, Calif.) containing 10% fetal Bovine serum (FBS, Sigma, St. Louis, Mo.). • Virus infection—Human epithelial cell line, HeLa, expressing the HIV-1 receptor CD4 was propagated in Dulbecco's Modified Eagle Medium (Invitrogen, Carlsbad, Calif.) containing 10% fetal Bovine serum (FBS, Sigma, St. Louis, Mo.) and supplemented with 0.2 mg/mL Geneticin (Invitrogen, Carlsbad, Calif.). Virus—Single-round infectious reporter virus was produced by co-transfecting human embryonic Kidney 293 cells with an HIV-1 envelope DNA expression vector and a proviral cDNA containing an envelope deletion mutation and the luciferase reporter gene inserted in place of HIV-1 nef sequences (Chen et al, Ref 41). Transfections were performed using lipofectAMINE PLUS reagent as described by the manufacturer (Invitrogen, Carlsbad, Calif.). Experiment • 1. HeLa CD4 cells were plated in 96 well plates at a cell density of 1×10^4 cells per well in 100 μl Dulbecco's Modified Eagle Medium containing 10% fetal Bovine serum and incubated overnight. • 2. Compound was added in a 2 μl dimethylsulfoxide solution, so that the final assay concentration would be ≦10 μM. • 3. 100 μl of single-round infectious reporter virus in Dulbecco's Modified Eagle Medium was then added to the plated cells and compound at an approximate multiplicity of infection (MOI) of 0.01, resulting in a final volume of 200 μl per well. • 4. Virally-infected cells were incubated at 37 degrees Celsius, in a CO2 incubator, and harvested 72 h after infection. • 5. Viral infection was monitored by measuring luciferase expression from viral DNA in the infected cells using a luciferase reporter gene assay kit, as described by the manufacturer (Roche Molecular Biochemicals, Indianapolis, Ind.). Infected cell supernatants were removed and 50 μl of lysis buffer was added per well. After 15 minutes, 50 μl of freshly-reconstituted luciferase assay reagent was added per well. Luciferase activity was then quantified by measuring luminescence using a Wallac microbeta scintillation counter. • 6. The percent inhibition for each compound was calculated by quantifying the level of luciferase expression in cells infected in the presence of each compound as a percentage of that observed for cells infected in the absence of compound and subtracting such a determined value from 100. • 7. An EC50 provides a method for comparing the antiviral potency of the compounds of this invention. The effective concentration for fifty percent inhibition (EC50) was calculated with the Microsoft Excel Xlfit curve fitting software. For each compound, curves were generated from percent inhibition calculated at 10 different concentrations by using a four parameter logistic model (model 205). Table 1 is the key for the data in Table 2. Results

SMILES | EC50 [µM]
N#CC(=C1CCN(C(=O)C(=O)c2c[nH]c3c(NC(=O)NCCCC(=O)O)cccc23)CC1)c1ccccc1 [P-I-5] | < 1
COC(=O)NCCCCNC(=O)Nc1cccc2c(C(=O)C(=O)N3CCN(C(=O)c4ccccc4)C[C@H]3C)cn(C(=O)NCCCCNC(=O)OC)c12 [P-C-115] | < 1
COC(=O)c1cc(NC(=O)Nc2cccc3c(C(=O)C(=O)N4CCC(=C(C#N)c5ccccc5)CC4)c[nH]c23)cc(C(=O)OC)c1 [P-C-17] | < 1
CCN(CC)S(=O)(=O)c1ccc(NC(=O)Nc2cccc3c(C(=O)C(=O)N4CCC(=C(C#N)c5ccccc5)CC4)c[nH]c23)cc1 [P-C-21] | < 1
N#CC(=C1CCN(C(=O)C(=O)c2c[nH]c3c(NC(=O)NCCC(=O)O)cccc23)CC1)c1ccccc1 [P-I-3] | < 1
CCOC(=O)c1ccccc1NC(=O)Nc1cccc2c(C(=O)C(=O)N3CCN(C(=O)c4ccccc4)C[C@H]3C)c[nH]c12 [P-C-10] | < 1
CC(=O)Nc1ccc(F)c2c(C(=O)C(=O)N3CCC(=C(C#N)c4ccccc4)CC3)c[nH]c12 [P-B-4] | < 1
CCOC(=O)c1ccc(NC(=O)Nc2cccc3c(C(=O)C(=O)N4CCN(C(=O)c5ccccc5)C[C@H]4C)c[nH]c23)cc1 [P-C-14] | < 1
CC1NC(=O)N(c2cccc3c(C(=O)C(=O)N4CCN(C(=O)c5ccccc5)C[C@H]4C)c[nH]c23)C1=O (stereo partly shown) [P-G-2] | < 1
C[C@@H]1CN(C(=O)c2ccccc2)CCN1C(=O)C(=O)c1c[nH]c2c(NC(=O)Nc3cc(C(=O)O)cc(C(=O)O)c3)cccc12 [P-I-14] | < 1
CNCCCN(C)CCN1CCN(c2cccc3c(C(=O)C(=O)N4CCN(C(=O)c5ccccc5)C[C@H]4C)c[nH]c23)C1=O [P-H-3] | < 1
C[C@@H]1CN(C(=O)c2ccccc2)CCN1C(=O)C(=O)c1c[nH]c2c(NC(=O)CCC(=O)O)cccc12 [P-A-8] | < 1
CCOC(=O)CCCCCNC(=O)Nc1cccc2c(C(=O)C(=O)N3CCC(=C(C#N)c4ccccc4)CC3)c[nH]c12 [P-C-8] | < 1
CCOC(=O)c1ccc(NC(=O)Nc2cccc3c(C(=O)C(=O)N4CCC(=C(C#N)c5ccccc5)CC4)c[nH]c23)cc1 [P-C-15] | < 1
C[C@@H]1CN(C(=O)c2ccccc2)CCN1C(=O)C(=O)c1c[nH]c2c(NC(=O)NCCOCCOCCN)cccc12 [P-C-205] | < 1
CCOC(=O)CCCNC(=O)Nc1ncc(F)c2c(C(=O)C(=O)N3CCN(C(=O)c4ccccc4)CC3)c[nH]c12 [P-C-26] | < 1
C[C@@H]1CN(C(=O)c2ccccc2)CCN1C(=O)C(=O)c1c[nH]c2c(NC(=O)CO)cccc12 [P-I-1] | < 1
C[C@@H]1CN(C(=O)c2ccccc2)CCN1C(=O)C(=O)c1c[nH]c2c(NS(=O)(=O)N(C)C)cccc12 [P-E-5] | < 1
C[C@@H]1CN(C(=O)c2ccccc2)CCN1C(=O)C(=O)c1c[nH]c2c(N3CCN(CCCl)C3=O)cccc12 [P-G-1] | < 1
CCOC(=O)CCCNC(=O)Nc1cccc2c(C(=O)C(=O)N3CCN(C(=O)c4ccccc4)C[C@H]3C)c[nH]c12 [P-C-5] | < 1
C[C@@H]1CN(C(=O)c2ccccc2)CCN1C(=O)C(=O)c1c[nH]c2c(NC(=O)/C=C/C(=O)O)cccc12 [P-A-9] | < 1
N#CC(=C1CCN(C(=O)C(=O)c2c[nH]c3c(NC(=O)Nc4ccc(C#N)cc4)cccc23)CC1)c1ccccc1 [P-C-23] | < 1
C[C@@H]1CN(C(=O)c2ccccc2)CCN1C(=O)C(=O)c1c[nH]c2c(NC(=O)c3ccc(B(O)O)cc3)cccc12 [P-A-23] | < 1
C[C@@H]1CN(C(=O)c2ccccc2)CCN1C(=O)C(=O)c1c[nH]c2c(NC(=O)CNC(C)(C)C)cccc12 [P-A-1] | < 1
C[C@@H]1CN(C(=O)c2ccccc2)CCN1C(=O)C(=O)c1c[nH]c2c(NC(=O)NCCCCCC(=O)O)cccc12 [P-I-6] | < 1
CC(C)COC(=O)Nc1cccc2c(C(=O)C(=O)N3CCN(C(=O)c4ccccc4)C[C@H]3C)c[nH]c12 [P-D-1] | < 1
C[C@@H]1CN(C(=O)c2ccccc2)CCN1C(=O)C(=O)c1c[nH]c2c(NC(=O)c3cccc(B(O)O)c3)cccc12 [P-A-22] | < 1
CC(=O)Nc1ccc(F)c2c(C(=O)C(=O)N3CCN(C(=O)c4ccccc4)CC3)c[nH]c12 [P-B-2] | < 1

SMILES | EC50 [µM]
COC(=O)[C@H]1OC(C)(C)O[C@@H]1C(=O)Nc1cccc2c(C(=O)C(=O)N3CCN(C(=O)c4ccccc4)C[C@H]3C)c[nH]c12 [P-A-13] | < 1
C[C@@H]1CN(C(=O)c2ccccc2)CCN1C(=O)C(=O)c1c[nH]c2c(NC(=O)NCCCCCCNC(=O)Nc3cccc(B(O)O)c3)cccc12 [P-C-113] | < 1
C[C@@H]1CN(C(=O)c2ccccc2)CCN1C(=O)C(=O)c1c[nH]c2c(NC(=O)C3OC3C(=O)O)cccc12 (stereo partly shown) [P-A-10] | < 1
Cc1ccc(S(=O)(=O)Nc2cccc3c(C(=O)C(=O)N4CCN(C(=O)c5ccccc5)C[C@H]4C)cn(S(=O)(=O)c4ccc(C)cc4)c23)cc1 [P-E-4] | < 1
COC(=O)c1ccccc1NC(=O)Nc1cccc2c(C(=O)C(=O)N3CCN(C(=O)c4ccccc4)C[C@H]3C)c[nH]c12 [P-C-9] | < 1
N#CC(=C1CCN(C(=O)C(=O)c2c[nH]c3c(NC(=O)NCCCCCC(=O)O)cccc23)CC1)c1ccccc1 [P-I-7] | < 1
Cc1ccc(S(=O)(=O)Nc2cccc3c(C(=O)C(=O)N4CCN(C(=O)c5ccccc5)C[C@H]4C)c[nH]c23)cc1 [P-E-3] | 1 to 5
CC/N=C(\NCCCN(C)C)Nc1cccc2c(C(=O)C(=O)N3CCN(C(=O)c4ccccc4)C[C@H]3C)c[nH]c12 [P-F-2] | < 1
CNCCN1CCN(c2cccc3c(C(=O)C(=O)N4CCN(C(=O)c5ccccc5)C[C@H]4C)c[nH]c23)C1=O [P-H-1] | < 1
COC(=O)CCCNC(=O)Nc1cccc2c(C(=O)C(=O)N3CCN(C(=O)c4ccccc4)C[C@H]3C)c[nH]c12 [P-C-4] | < 1
C[C@@H]1CN(C(=O)c2ccccc2)CCN1C(=O)C(=O)c1c[nH]c2c(NC(=O)C(=O)O)cccc12 [P-A-18] | < 1
CCOC(=O)CC[C@@H]1NC(=O)N(c2cccc3c(C(=O)C(=O)N4CCC(=C(C#N)c5ccccc5)CC4)c[nH]c23)C1=O [P-G-3] | < 1
CCOC(=O)c1cccc(NC(=O)Nc2cccc3c(C(=O)C(=O)N4CCC(=C(C#N)c5ccccc5)CC4)c[nH]c23)c1 [P-C-13] | < 1
CC(=O)Nc1ccc(F)c2c(C(=O)C(=O)N3CC/C(=C(\C#N)c4ccccc4)CC3C)c[nH]c12 (stereo not shown) [P-B-3] | < 1
N#CC(=C1CCN(C(=O)C(=O)c2c[nH]c3c(NC(=O)NC4CCN(C(=O)C(F)(F)F)CC4)cccc23)CC1)c1ccccc1 [P-C-25] | < 1
COC(=O)C(O)C(O)C(=O)Nc1cccc2c(C(=O)C(=O)N3CCN(C(=O)c4ccccc4)C[C@H]3C)c[nH]c12 (stereo partly shown) [P-A-17] | < 1
CC(=O)Nc1ccc(F)c2c(C(=O)C(=O)N3CCC(=C(C#N)c4cccnc4)CC3)c[nH]c12 [P-B-5] | < 1
COC(=O)[C@@H]1OC(C)(C)O[C@H]1C(=O)Nc1cccc2c(C(=O)C(=O)N3CCN(C(=O)c4ccccc4)C[C@H]3C)c[nH]c12 [P-A-15] | < 1
C[C@@H]1CN(C(=O)c2ccccc2)CCN1C(=O)C(=O)c1c[nH]c2c(NC(=O)C[N+](C)(C)C)cccc12 [P-A-2] | < 1
CC(=O)Nc1cccc2c(C(=O)C(=O)N3CCN(C(=O)c4ccccc4)C[C@H]3C)c[nH]c12 [P-A-5] | < 1
N#CC(=C1CCN(C(=O)C(=O)c2c[nH]c3c(NC(=O)Nc4ccc(S(=O)(=O)O)cc4)cccc23)CC1)c1ccccc1 [P-C-20] | < 1
C[C@@H]1CN(C(=O)c2ccccc2)CCN1C(=O)C(=O)c1c[nH]c2c(NC(=O)Nc3ccccc3C(=O)O)cccc12 [P-I-9] | < 1
N#CC(=C1CCN(C(=O)C(=O)c2c[nH]c3c(N4C(=O)N[C@@H](CCC(=O)O)C4=O)cccc23)CC1)c1ccccc1 [P-I-17] | < 1
COC(=O)c1cc(NC(=O)Nc2cccc3c(C(=O)C(=O)N4CCN(C(=O)c5ccccc5)C[C@H]4C)c[nH]c23)cc(C(=O)OC)c1 [P-C-16] | < 1
C[C@@H]1CN(C(=O)c2ccccc2)CCN1C(=O)C(=O)c1c[nH]c2c(NC(=O)CN(C)C)cccc12 [P-A-3] | < 1
N#CC(=C1CCN(C(=O)C(=O)c2c[nH]c3c(NC(=O)Nc4ccc(C(=O)O)cc4)cccc23)CC1)c1ccccc1 [P-I-13] | < 1
C[C@@H]1CN(C(=O)c2ccccc2)CCN1C(=O)C(=O)c1c[nH]c2c(NC(=O)NCC(=O)O)cccc12 [P-I-18] | < 1
